The values below come from article PMC2885440 (Journal of natural products, 2010).

This series is described as follows: Relative polarity on C12 reversed-phase HPLC. The following applies: C12 reversed-phase HPLC (Jupiter Proteo C12), linear gradient 50–80% MeOH in 0.05% TFA in 50 min. Format: physicochemical.

For the substance “Lys-Ala-Leu1-Leu2-Trp (lariat or depsi) [Paltolide A]”, the “polarity among compounds 1–6” value is “most polar”.
